Assays:
Type in all cases: biochemical
Conditions in all cases: procedures of Example 14 (TR-FRET)
JNK2 = JNK2 (Homo sapiens (Human), UniProt P45984); assay: JNK2 TR-FRET kinase assay (Example 14)
Experimental: (§1) 14.3. Active JNK 1, 2 and 3 TR-FRET Assay
(§2) (1) Assay buffer #1 with 0.0025% Tween and 1 mM DTT was prepared using JNK buffer stock solution.
(§3) (2) Assay buffer #2 with 0.025% BSA was prepared using the assay buffer #1.
(§4) (3) Test compound solution preparation: 5× compound solution was prepared using assay buffer #1 with 5% DMSO. The compound solution (10 μl/well) was added to a 384-well plate (Corning, Cat No. 3654).
(§5) (4) aJNK1, 2 or 3 preparation: aJNK stock (100 μg/ml) at −80° C. was thawed on ice and an aJNK (1.6 ng/ml) solution was prepared using assay buffer #2. The aJNK solution (20 μl/well) was added to the plate and the plate was shaken. The enzyme was incubated with the compound at RT for 10 min. (5) ATP/substrate solution preparation: ATP and substrate stocks were thawed on ice. 2.5×ATP/substrate (e.g., 25 μM or 2.5 mM ATP/50 nM EPIW-1) was prepared using assay buffer #1. The ATP/substrate (20 μl/well) was added to the plate and the plate was shaken. The plate was incubated at RT for 15 min. Note: In an exemplary assay, the final ATP concentration was about 1 mM. (6) EDTA preparation: 30 mM EDTA was prepared using 0.5M EDTA stock and assay buffer #1. The EDTA (10 μl/well) was added to the plate to quench the enzyme reaction and the plate was shaken well. (7) Detection reagent preparation: Eu-63 and SA-XL stocks were thawed on ice. 4× Eu-63/SA-XL (2 nM Eu-63/9.4 nM SA-XL) was prepared using JNK detection buffer. The Eu-63/SA-XL solution (20 μl/well) was added to the plate and the plate was shaken. The plate was incubated at RT for 1 hr before reading the plate on LJL using ratiometric method named HTRF.
(§6) 14.4. Coupled JNK 1, 2 and 3 TR-FRET Assay
(§7) (1) Assay buffer with 0.0025% Tween, 0.01% BSA, and 1 mM DTT was prepared using JNK buffer stock solution.
(§8) (2) Test compound solution preparation: 5× compound solution, including EDTA background, was prepared using assay buffer with 5% DMSO. The compound solution (10 μl/well) was added to a 384-well plate (Corning, Cat No. 3654).
(§9) (3) uJNK1,2, or 3 activation reaction preparation: uJNK activation solution was prepared using assay buffer (1.6 ng/ml MKK4, 1.6 ng/ml MKK7, 16 ng/ml uJNK, and 20 uM ATP final). The uJNK activation solution (35 μl/well) was added to the plate, the plate was shaken, and the reaction mixture was incubated with compound at 30° C. for 60 min. (4) c-Jun substrate solution preparation: 50 nM EPIW-1, c-Jun peptide, was prepared using assay buffer (15 nM final). The EPIW-1 solution (15 μl/well) was added to the plate, the plate was shaken and incubated at 30° C. for 60 min. (5) EDTA preparation: 30 mM EDTA was prepared using 0.5M EDTA stock and assay buffer. The EDTA (10 μl/well) was added to the plate to quench the enzyme reaction and the plate was shaken well. (6) Detection reagent preparation: Eu-73 and SA-XL stocks were thawed on ice. 4× Eu-73/SA-XL (2 nM Eu-73/9.4 nM SA-XL) were prepared using JNK detection buffer. The Eu-73/SA-XL solution (20 μl/well) was added to the plate. The plate was shaken and incubated at RT for 1 hr before reading the plate on LJL using ratiometric method named HTRF.

JNK3 = JNK3 (Homo sapiens (Human), UniProt P53779); assay: JNK3 TR-FRET kinase assay (Example 14)
Experimental: as §1, §2, §3, §4, §5, §6, §7, §8, §9

JNK1 = JNK1 (Homo sapiens (Human), UniProt P45983); assay: JNK1 TR-FRET kinase assay (Example 14)
Experimental: as §1, §2, §3, §4, §5, §6, §7, §8, §9

JNK3, sequence (P53779 whole entry, species assumed): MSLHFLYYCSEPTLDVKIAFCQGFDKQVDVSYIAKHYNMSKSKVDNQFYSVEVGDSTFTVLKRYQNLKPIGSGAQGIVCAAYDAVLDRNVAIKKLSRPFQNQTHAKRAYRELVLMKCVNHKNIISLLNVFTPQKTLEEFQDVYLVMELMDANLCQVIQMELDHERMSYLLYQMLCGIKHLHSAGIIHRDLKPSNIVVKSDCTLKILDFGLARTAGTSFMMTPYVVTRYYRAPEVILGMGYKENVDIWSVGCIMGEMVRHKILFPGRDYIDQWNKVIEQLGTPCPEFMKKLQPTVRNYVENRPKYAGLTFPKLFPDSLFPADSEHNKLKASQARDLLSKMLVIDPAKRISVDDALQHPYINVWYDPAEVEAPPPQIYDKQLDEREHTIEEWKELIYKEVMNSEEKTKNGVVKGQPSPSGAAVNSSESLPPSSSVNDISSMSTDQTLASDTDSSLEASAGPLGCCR
JNK1, sequence (P45983 other isoform, or with tags, fused parts or gaps isoform P45983-2, species assumed): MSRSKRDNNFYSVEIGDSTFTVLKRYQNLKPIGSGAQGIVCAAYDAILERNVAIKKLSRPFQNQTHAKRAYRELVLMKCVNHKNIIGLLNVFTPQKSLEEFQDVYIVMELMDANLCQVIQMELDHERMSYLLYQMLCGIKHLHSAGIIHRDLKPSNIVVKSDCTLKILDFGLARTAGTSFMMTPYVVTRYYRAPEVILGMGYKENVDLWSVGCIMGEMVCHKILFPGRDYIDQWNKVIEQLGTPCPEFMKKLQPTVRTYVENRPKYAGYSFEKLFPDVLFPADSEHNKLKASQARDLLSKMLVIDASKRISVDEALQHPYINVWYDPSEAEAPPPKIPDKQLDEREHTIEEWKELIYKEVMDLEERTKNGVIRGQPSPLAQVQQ
JNK2, sequence (P45984 whole entry, species assumed): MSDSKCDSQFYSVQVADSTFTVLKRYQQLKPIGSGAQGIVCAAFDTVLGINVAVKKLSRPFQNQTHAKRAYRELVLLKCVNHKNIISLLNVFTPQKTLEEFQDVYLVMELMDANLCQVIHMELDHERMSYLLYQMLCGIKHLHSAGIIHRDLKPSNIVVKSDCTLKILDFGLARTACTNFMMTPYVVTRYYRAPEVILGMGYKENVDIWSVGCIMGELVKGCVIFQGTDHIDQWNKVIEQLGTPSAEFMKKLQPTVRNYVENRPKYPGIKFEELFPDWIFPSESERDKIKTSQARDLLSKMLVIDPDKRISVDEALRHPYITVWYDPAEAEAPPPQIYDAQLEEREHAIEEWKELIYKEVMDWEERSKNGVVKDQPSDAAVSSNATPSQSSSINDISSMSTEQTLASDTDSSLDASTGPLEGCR

Cc1n[nH]c(-c2sccc2NC(=O)Cc2ccc3c(c2)OCCO3)n1 [2-(2,3-dihydrobenzo[b][1,4]dioxin-6-yl)-N-(2-(3-methyl-1H-1,2,4-triazol-5-yl)thiophen-3-yl)acetamide]
IC50 (JNK2): 0.1 to 10 µM | IC50 (JNK3): 0.1 to 10 µM | IC50 (JNK1): 0.1 to 10 µM

O=C(Cn1c(=O)ccc2cnccc21)Nc1ccsc1-c1cscn1 [2-(2-oxo-1,6-naphthyridin-1(2H)-yl)-N-(2-(thiazol-4-yl)thiophen-3-yl)acetamide]
IC50 (JNK2): 0.1 to 10 µM | IC50 (JNK3): 0.1 to 10 µM | IC50 (JNK1): < 0.1 µM

O=C(CN1C(=O)CCc2cnccc21)Nc1ccsc1-c1cscn1 [2-(2-oxo-3,4-dihydro-1,6-naphthyridin-1(2H)-yl)-N-(2-(thiazol-4-yl)thiophen-3-yl)acetamide]
IC50 (JNK2): 0.1 to 10 µM | IC50 (JNK3): 0.1 to 10 µM | IC50 (JNK1): 0.1 to 10 µM

O=C(Cc1cccc2ccccc12)Nc1ccsc1-c1ccccn1 [2-(2-pyridyl)-3-(1-naphthylacetylamino)thiophene]
IC50 (JNK3): 0.1 to 10 µM

COc1ccc(CC(=O)Nc2ccsc2-c2nc(C)n[nH]2)cc1 [2-(4-methoxyphenyl)-N-(2-(3-methyl-1H-1,2,4-triazol-5-yl)thiophen-3-yl)acetamide]
IC50 (JNK2): 0.1 to 10 µM

COc1ccc(CC(=O)Nc2ccsc2-c2ncco2)cc1 [2-(4-methoxyphenyl)-N-(2-(oxazol-2-yl)thiophen-3-yl)acetamide]
IC50 (JNK2): > 10 µM

Cn1ncnc1-c1ncsc1NC(=O)Cc1cccc2cnccc12 [2-(isoquinolin-5-yl)-N-(4-(1-methyl-1H-1,2,4-triazol-5-yl)thiazol-5-yl)acetamide]
IC50 (JNK2): 0.1 to 10 µM

O=C(Cc1ccc2c(c1)OCCO2)Nc1ccsc1-c1ncn[nH]1 [N-(2-(1H-1,2,4-triazol-5-yl)thiophen-3-yl)-2-(2,3-dihydrobenzo[b][1,4]dioxin-6-yl)acetamide]
IC50 (JNK2): 0.1 to 10 µM

O=C(Cc1cccc2ccccc12)Nc1ccsc1-c1cc[nH]n1 [N-(2-(1H-pyrazol-3-yl)thiophen-3-yl)-2-(naphthalen-1-yl)acetamide]
IC50 (JNK2): > 50 µM

COc1ccc(CC(=O)Nc2ccsc2-c2nc(N)n[nH]2)cc1 [N-(2-(3-amino-1H-1,2,4-triazol-5-yl)thiophen-3-yl)-2-(4-methoxyphenyl)acetamide]
IC50 (JNK2): 0.1 to 10 µM

Cc1noc(-c2sccc2NC(=O)Cc2cccc3ccccc23)n1 [N-(2-(3-methyl-1,2,4-oxadiazol-5-yl)thiophen-3-yl)-2-(naphthalen-1-yl)acetamide]
IC50 (JNK2): > 50 µM

Cc1n[nH]c(-c2sccc2NC(=O)Cc2ccc(N3CCCC3=O)cc2)n1 [N-(2-(3-methyl-1H-1,2,4-triazol-5-yl)thiophen-3-yl)-2-(4-(2-oxopyrrolidin-1-yl)phenyl)acetamide]
IC50 (JNK2): 0.1 to 10 µM

Cc1cc(-c2sccc2NC(=O)Cc2cccc3ccccc23)n[nH]1 [N-(2-(5-methyl-1H-pyrazol-3-yl)thiophen-3-yl)-2-(naphthalen-1-yl)acetamide]
IC50 (JNK2): > 50 µM

COc1ccc(CC(=O)Nc2sccc2-c2nn[nH]n2)cc1 [N-(3-(2H-tetrazol-5-yl)thiophen-2-yl)-2-(4-methoxyphenyl)-acetamide]
IC50 (JNK2): > 50 µM

O=C(Cc1cccc2cccnc12)Nc1scc(Br)c1-c1ncn[nH]1 [N-(4-bromo-3-(1H-1,2,4-triazol-5-yl)thiophen-2-yl)-2-(quinolin-8-yl)acetamide]
IC50 (JNK2): 0.1 to 10 µM | IC50 (JNK3): 0.1 to 10 µM

Cc1csc(NC(=O)CN2C(=O)CCc3ccccc32)c1-c1ncn[nH]1 [N-(4-methyl-3-(1H-1,2,4-triazol-5-yl)thiophen-2-yl)-2-(2-oxo-3,4-dihydroquinolin-1(2H)-yl)acetamide]
IC50 (JNK3): < 0.1 µM | IC50 (JNK1): < 0.1 µM

Cc1csc(NC(=O)Cc2cccc3ncccc23)c1-c1ncn[nH]1 [N-(4-methyl-3-(1H-1,2,4-triazol-5-yl)thiophen-2-yl)-2-(quinolin-5-yl)acetamide]
IC50 (JNK2): 0.1 to 10 µM

Cc1nnc(-c2c(C)csc2NC(=O)Cc2ccc(-c3ccncc3)cc2)[nH]1 [N-(4-methyl-3-(5-methyl-4H-1,2,4-triazol-3-yl)thiophen-2-yl)-2-(4-(pyridin-4-yl)phenyl)acetamide]
IC50 (JNK3): 0.1 to 10 µM
